Here are results for 18 molecules from ChEMBL document CHEMBL3351864, “Beyond paraquats: dialkyl 3,3'- and 3,4'-bipyridinium amphiphiles as antibacterial agents” (2014).

Molecules are shown by their SMILES.

Holding throughout (format): functional
Assay [1] deals with Enterococcus faecalis. The assay is described as follows: Antibacterial activity against Enterococcus faecalis OG1RF after 72 hrs by broth microdilution method.
In assay [2] the test system is Staphylococcus aureus. Briefly: Antibacterial activity against Staphylococcus aureus SH1000 after 72 hrs by broth microdilution method. As to conditions: SH1000, 72 h.
The subject of assay [3] is Escherichia coli. Briefly: Antibacterial activity against Escherichia coli MC4100 after 72 hrs by broth microdilution method. To be noted: MC4100, 72 h.
In assay [4] the test system is Pseudomonas aeruginosa. Briefly: Antibacterial activity against Pseudomonas aeruginosa PAO1 WT after 72 hrs by broth microdilution method. To be noted: PAO1, 72 h.

For `CCCCCCCCCCCC[n+]1ccc(-c2ccc[n+](CCCCCCCCCCCC)c2)cc1`, the MIC turned out to be 1 µM in assay [1], 1 µM in assay [2], 0.5 µM in assay [3] and 2 µM in assay [4].
`CCCCCCCCCCCCCC[n+]1ccc(-c2ccc[n+](CCCCCCCCCCCCCC)c2)cc1`: the MIC was found to be 1 µM in assay [1], 2 µM in assay [2], 2 µM in assay [3] and 16 µM in assay [4].
On to `CCCCCCCC[n+]1cccc(-c2ccc[n+](CCCCCCCC)c2)c1`, for which the MIC is 125 µM in assay [1], 32 µM in assay [2], 250 µM in assay [3] and more than 500 µM in assay [4].
In the same order, the values of `CCCCCCCCCC[n+]1cccc(-c2ccc[n+](CCCCCCCCCC)c2)c1` are 2 µM, 2 µM, 2 µM and 8 µM.
In the same order, the values of `CCCCCCCCCCCC[n+]1cccc(-c2ccc[n+](CCCCCCCCCC)c2)c1` are 2 µM, 2 µM, 2 µM and 4 µM.
Regarding `CCCCCCCCCCC[n+]1cccc(-c2ccc[n+](CCCCCCCCCCC)c2)c1`, the MIC in assay [1] came out at 1 µM; in assay [2], 0.5 µM; in assay [3] it was 1 µM; in assay [4] it was 2 µM.
For the molecule `CCCCCCCCCCCC[n+]1cccc(-c2ccc[n+](CCCCCCCCCCCC)c2)c1`, the MIC amounted to 1 µM in assay [1], 1 µM in assay [2], 1 µM in assay [3] and 2 µM in assay [4].
For the molecule `CCCCCCCCCCCCCC[n+]1cccc(-c2ccc[n+](CCCCCCCCCCCC)c2)c1`, the minimum inhibitory concentration (MIC) in assay [1] came out at 1 µM; in assay [2], 2 µM; in assay [3], 2 µM; in assay [4] it was 8 µM.
Turning to `CCCCCCCCCCCCCC[n+]1cccc(-c2ccc[n+](CCCCCCCCCCCCCC)c2)c1`, the MIC in assay [1] is 2 µM; in assay [2], 2 µM; in assay [3] it was 4 µM; in assay [4], 16 µM.
As to `CCCCCCCCCCCCCCCC[n+]1cccc(-c2ccc[n+](CCCCCCCCCCCCCCCC)c2)c1`, the MIC in assay [1] was determined as 1 µM; in assay [2], 2 µM; in assay [3], 8 µM; in assay [4] it was 16 µM.
For the molecule `CCCCCCCCCCCC[n+]1cccc(-c2cccnc2)c1`, the MIC was 63 µM in assay [1], 8 µM in assay [2], 63 µM in assay [3] and 250 µM in assay [4].
With `CCCCCCCCCCCC[n+]1cccc(-c2ccc[n+](C)c2)c1`, the MIC came out at 125 µM in assay [1], 125 µM in assay [2], 125 µM in assay [3] and 250 µM in assay [4].
Turning to `CCCCCCCCCCCC[n+]1cccc(-c2ccc[n+](Cc3ccccc3)c2)c1`, the MIC stood at 63 µM in assay [1], 8 µM in assay [2], 32 µM in assay [3] and 250 µM in assay [4].
In the same order, the values of `CCCCCCCC[n+]1ccc(-c2ccc[n+](CCCCCCCC)c2)cc1` are 125 µM, 125 µM, 125 µM and more than 500 µM.
In the same order, the values of `CCCCCCCCCC[n+]1ccc(-c2ccc[n+](CCCCCCCCCC)c2)cc1` are 2 µM, 2 µM, 2 µM and 16 µM.
With `CCCCCCCCCCC[n+]1ccc(-c2ccc[n+](CCCCCCCCCCC)c2)cc1`, the minimum inhibitory concentration (MIC) was determined as 0.5 µM in assay [1], 0.5 µM in assay [2], 0.5 µM in assay [3] and 1 µM in assay [4].
For the molecule `CCCCCCCCCCCCCCCC[n+]1ccc(-c2ccc[n+](CCCCCCCCCCCCCCCC)c2)cc1`, the MIC was determined as 4 µM in assay [1], 2 µM in assay [2], 16 µM in assay [3] and 63 µM in assay [4].
In the same order, the values of `CCCCCCCCCCCC[N+](C)(C)Cc1ccccc1` [BENZODODECINIUM CHLORIDE] are 8 µM, 8 µM, 32 µM and 63 µM.
